Results on 9 molecules are retold here after patent publication US8722930B2, “Protease inhibitors” (Orion Corporation, priority 2009, dated 2014).

Read-outs that look alike come from different tables or passages of the source.

In one assay the target is T1, thrombin (Homo sapiens, UniProt P00734).
T1 construct: uPA, Factor Xa, thrombin, plasmin and trypsin (Sigma, USA); purchased Sigma, USA
Nature of the assay: Thrombin enzymatic assay (selectivity screening). Format: biochemical. The conditions noted are these: for Thrombin Inhibition (%): % Inhibition at 5 μM. The text has this:
(§1) Purified recombinant matriptase was used in a fluorescence-based screening assay using Gln-Ala-Arg peptide as a substrate. In this assay the cleavage of AMC from Boc-Gln-Ala-Arg-7-amido-4 methylcoumarin hydrochloride (Boc-Gln-Ala-Arg-AMC) (Sigma, USA) was monitored by measuring the increase in fluorescence intensity of AMC released upon proteolytic cleavage at 480 nm (kex=360 nm). Similarly, enzymatic assays in fluorimetric or colorimetric format for uPA, Factor Xa, thrombin, plasmin and trypsin (Sigma, USA) were established using substrates pyroGlu-Gly-Arg-pNA.HCl, Boc-Gln-Ala-Arg-AMC, CH3OCO-D-CHA-Gly-Arg-PNA.AcoH, Pyro Glu-Phe-Lys—pNA.HCl and Boc-Gln-Ala-Arg-AMC, respectively.

Assay [1] has as its target T2, Purified recombinant matriptase (Homo sapiens, UniProt Q9Y5Y6).
T2 sequence (Q9Y5Y6 1-855): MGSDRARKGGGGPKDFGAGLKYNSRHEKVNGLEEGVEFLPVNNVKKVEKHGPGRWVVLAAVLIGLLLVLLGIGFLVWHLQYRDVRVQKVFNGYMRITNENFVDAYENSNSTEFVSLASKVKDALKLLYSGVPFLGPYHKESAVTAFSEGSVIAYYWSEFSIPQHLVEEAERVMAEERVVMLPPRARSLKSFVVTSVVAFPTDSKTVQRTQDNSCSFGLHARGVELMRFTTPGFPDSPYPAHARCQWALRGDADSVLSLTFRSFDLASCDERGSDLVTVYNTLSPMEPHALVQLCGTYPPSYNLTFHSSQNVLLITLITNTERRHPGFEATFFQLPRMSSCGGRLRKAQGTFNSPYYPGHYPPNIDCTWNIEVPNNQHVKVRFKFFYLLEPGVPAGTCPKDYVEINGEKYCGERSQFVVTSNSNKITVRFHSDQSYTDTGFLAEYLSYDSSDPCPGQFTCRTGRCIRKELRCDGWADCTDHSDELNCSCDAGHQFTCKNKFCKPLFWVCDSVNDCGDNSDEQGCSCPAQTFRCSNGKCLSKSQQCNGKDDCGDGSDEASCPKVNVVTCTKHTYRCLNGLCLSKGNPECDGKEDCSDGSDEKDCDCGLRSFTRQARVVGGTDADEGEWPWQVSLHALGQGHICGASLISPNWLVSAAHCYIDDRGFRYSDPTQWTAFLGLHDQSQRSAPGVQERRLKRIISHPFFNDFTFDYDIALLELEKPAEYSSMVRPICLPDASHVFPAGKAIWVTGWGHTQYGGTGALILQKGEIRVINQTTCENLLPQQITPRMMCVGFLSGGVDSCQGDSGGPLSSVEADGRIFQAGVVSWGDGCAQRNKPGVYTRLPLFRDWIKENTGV
Nature of the assay: Matriptase fluorescence-based enzymatic assay (Boc-Gln-Ala-Arg-AMC cleavage). Format: biochemical.
Source text: as §1

The target in a further assay is T3, uPA (Homo sapiens, UniProt P00749).
T3 construct: purchased Sigma, USA
Put plainly: uPA enzymatic assay (selectivity screening). Format: biochemical. The conditions noted are these: for uPA Inhibition (%): % Inhibition at 5 μM.
Source text: as §1

The test system of a further assay is trypsin. Nature of the assay: Trypsin enzymatic assay (selectivity screening). Format: biochemical. The conditions noted are these: % Inhibition at 5 μM.
Source text: as §1

The target in the next assay is T4, Factor Xa (Homo sapiens, UniProt P00742).
T4 construct: uPA, Factor Xa, thrombin, plasmin and trypsin (Sigma, USA); purchased Sigma, USA
T4 sequence (P00742 235-488 limits assumed): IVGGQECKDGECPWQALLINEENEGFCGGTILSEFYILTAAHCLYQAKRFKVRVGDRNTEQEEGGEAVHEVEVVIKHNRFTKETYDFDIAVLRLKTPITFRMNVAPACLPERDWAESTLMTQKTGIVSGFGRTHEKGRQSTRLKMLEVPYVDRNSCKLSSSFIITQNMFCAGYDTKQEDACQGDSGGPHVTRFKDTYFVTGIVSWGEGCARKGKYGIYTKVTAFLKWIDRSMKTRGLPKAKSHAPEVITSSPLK
T4 sequence (P00742 41-179 partner limits assumed): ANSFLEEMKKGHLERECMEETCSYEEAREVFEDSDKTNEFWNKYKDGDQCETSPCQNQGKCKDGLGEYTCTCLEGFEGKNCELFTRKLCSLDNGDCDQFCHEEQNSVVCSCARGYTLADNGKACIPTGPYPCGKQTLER
Nature of the assay: Factor Xa enzymatic assay (selectivity screening). The assay is classed as biochemical. The conditions noted are these: for Factor Xa Inhibition (%): % Inhibition at 5 μM.
Source text: as §1

In a further assay the target is T5, plasmin (Homo sapiens, UniProt P00747).
T5 construct: uPA, Factor Xa, thrombin, plasmin and trypsin (Sigma, USA); purchased Sigma, USA
T5 sequence (P00747 581-810 limits assumed, species assumed): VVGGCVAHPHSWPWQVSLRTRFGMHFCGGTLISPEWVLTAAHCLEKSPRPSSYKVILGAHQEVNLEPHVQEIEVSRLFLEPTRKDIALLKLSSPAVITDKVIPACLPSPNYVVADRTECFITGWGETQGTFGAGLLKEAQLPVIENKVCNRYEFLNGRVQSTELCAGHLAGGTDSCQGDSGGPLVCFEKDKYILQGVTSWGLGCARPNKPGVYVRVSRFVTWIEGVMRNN
T5 sequence (P00747 97-580 partner limits assumed, species assumed): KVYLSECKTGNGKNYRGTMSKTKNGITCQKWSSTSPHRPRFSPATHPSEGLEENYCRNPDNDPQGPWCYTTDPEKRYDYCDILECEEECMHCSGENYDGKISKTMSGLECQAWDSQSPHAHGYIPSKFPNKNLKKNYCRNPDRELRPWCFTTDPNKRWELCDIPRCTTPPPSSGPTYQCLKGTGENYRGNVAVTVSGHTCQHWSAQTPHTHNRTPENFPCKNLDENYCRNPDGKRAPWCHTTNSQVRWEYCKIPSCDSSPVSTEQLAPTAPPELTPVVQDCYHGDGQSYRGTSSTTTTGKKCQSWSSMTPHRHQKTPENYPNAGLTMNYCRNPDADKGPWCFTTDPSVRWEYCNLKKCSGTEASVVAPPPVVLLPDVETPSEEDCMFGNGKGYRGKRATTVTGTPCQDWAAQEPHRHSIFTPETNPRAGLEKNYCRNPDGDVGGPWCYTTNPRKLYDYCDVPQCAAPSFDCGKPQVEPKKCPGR
Nature of the assay: Plasmin enzymatic assay (selectivity screening). Format: biochemical. The conditions noted are these: for Plasmin Inhibition (%): % Inhibition at 5 μM.
Source text: as §1

Assay [2] deals with DU145 cells. Nature of the assay: Soft agar colony formation assay. The conditions noted are these: Homo sapiens, DU-145, 504 h, about three weeks, read-out: EC50 for inhibition of soft agar colony formation. Format: cell-based. As to the method:
Soft agar colony formation assays were performed to measure the long-term survival and anchorage-independent growth capacity of tumor cells. DU145 cells were seeded in 0.7% nutrient agar with the test compound on an underlay of 1.4% nutrient agar in a six well plate. On the day following cell seeding, liquid cell culture medium containing the compound was added to the well to prevent the agar from drying out and was changed regularly till the completion of the experiment. The cells were allowed to form colonies for a period of about three weeks following which the colonies were stained with 0.005% solution of crystal violet in 25% methanol. The colonies were counted under a dissecting microscope.

Assay [3] concerns DU145 cells. Put plainly: Cytotoxicity, Calcein AM assay, DU145. Format: cell-based. The conditions noted are these: Homo sapiens, DU-145, 96 h, four days of incubation, read-out: Cell survival at 10 μM (%). As to the method:
Cytotoxicity of the compounds was tested in cell lines or primary cells using Calcein AM assay. This assay measures cell viability by quantitation of cleaved fluorescent product of a cell permeable substrate that is retained in the cytoplasm of cells with uncompromised cytoplasmic membrane integrity. The cells were seeded into 96-well plate and allowed to adhere for a day followed by addition of compound at several different concentrations. After four days of incubation with the compound, media was removed from the cells followed by addition of PBS and addition of Calcein AM reagent at 1 μM final concentration. The cells were then allowed to incubate at 37° C. for half an hour followed by reading on the fluorimeter. Percent viability was calculated based on fluorescence value obtained at 485/520 nm with cut off at 495 nm.

Assay [4] has as its system DU145 cells. Nature of the assay: Migration assay in transwell chambers. Format: cell-based. The conditions noted are these: Homo sapiens, DU-145, 24 hours. As to the method:
Migration assays were performed to determine the effect of matriptase inhibitors on cell motility. Cells were seeded with 10 μM test compound into transwell chambers and allowed to migrate for 24 hours using a combination of 10% FBS and 5 μg/ml fibronectin as chemoattractant.

In assay [5] the test system is DU145 cells. Nature of the assay: Cell invasion assay (matrigel transwell). Format: cell-based. The conditions noted are these: Homo sapiens, DU-145, 48 hours. The method, then: Cell invasion assays were done for quantitating the degree to which invasive cells penetrate a barrier essentially as in migration assay but with the use of matrigel consisting of basement membrane components in the transwell inserts and incubating for 48 hours. The barrier used was matrigel. This was followed by fixing and staining of the transwell insert with 0.5% crystal violet in 25% methanol in order to visualize cells migrated.

[6] abbreviates: Table 1, read-out: Matriptase Inhibition IC50.
The mark [7] stands for this setting: Table 2, read-out: Matriptase IC50.

Consider `N=C(N)c1ccc(Oc2cc(C(=O)NC3CCC(N)CC3)cc(Oc3ccc(C(=N)N)cc3)n2)cc1` (centres unmarked) [Example 13, N-(4-Amino-cyclohexyl)-2,6-bis-(4-carbamimidoyl-phenoxy)-isonicotinamide], for which the inhibition at 5 µM at thrombin was 28%; against uPA, 13%; on Factor Xa it was 84%; on plasmin, 33%. Moreover, the half-inhibitory concentration (IC50) in [1] was determined as 20 nM. In the assay with trypsin, the “Trypsin Inhibition (%)” value is given as 92%. Moreover, the EC50 in the assay on DU145 cells [2] came out at 500 nM.

For the molecule `N=C(N)c1ccc(Oc2cc(OCc3cccc(CN)c3)cc(C(=O)NC3CCC(N)CC3)c2)cc1` (centres unmarked) [Example 47, N-(4-Aminocyclohexyl)-3-(3-aminomethylbenzyloxy)-5-(4-carbamimidoylphenoxy)benzamide], the viability at 10 µM with DU145 cells [3] was 100%. The inhibition at 5 µM was 3% at thrombin, -1% against uPA, 71% against Factor Xa and 18% against plasmin. Moreover, the concentration for half-maximal inhibition (IC50) in assay [1] (setting [6]) and in [1] (setting [7]) was 38 nM in each case. The values for the inhibition at 10 µM in the assay with DU145 cells [4] and in the assay on DU145 cells [5] were 39% and 63%, respectively. In addition, the EC50 with DU145 cells [2] was found to be 900 nM.

For the molecule `N=C(N)c1ccc(Oc2cc(OCc3ccc(Br)cc3)cc(C(=O)NC3CCC(N)CC3)c2)cc1` (centres unmarked) [Example 51, N-(4-Aminocyclohexyl)-3-(4-bromobenzyloxy)-5-(4-carbamimidoylphenoxy)benzamide], the viability at 10 µM with DU145 cells [3] was 93%. For the same molecule, the inhibition at 5 µM at thrombin worked out at 41%; against uPA, 23%; at Factor Xa it was 52%; on plasmin, 25%. Further, the IC50 in [1] (setting [6]) turned out to be 379 nM; in [1] (setting [7]), 122 nM. Further, the inhibition at 10 µM with DU145 cells [4] is -4%; in the assay on DU145 cells [5], 61%. In the assay on DU145 cells [2], the EC50 came to 700 nM.

Turning to `N=C(N)c1ccc(COc2cc(Oc3ccc(C(=N)N)cc3)cc(C(=O)N3CCC(CCN)CC3)c2)cc1` [Example 58, 2-{1-[3-(4-carbamimidoyl-benzyloxy)-5-(4-carbamimidoyl-phenoxy)benzoyl]-piperidin-4-yl}ethylamine], in the assay with DU145 cells [3], the viability at 10 µM was 100%. The inhibition at 5 µM against thrombin turned out to be 70%; on uPA it was 7%; against Factor Xa, 73%; against plasmin, 42%. In addition, the IC50 in assay [1] (setting [6]) and in assay [1] (setting [7]) was 35 nM each time. Besides, the results for the inhibition at 10 µM with DU145 cells [4] and in the assay with DU145 cells [5] were 63% and 91%, respectively. In addition, the EC50 in the assay with DU145 cells [2] worked out at 100 nM.

`Cc1cc(Oc2cc(Oc3ccc(C(=N)N)cc3)cc(C(=O)NC3CCC(N)CC3)c2)ccc1C(=N)N` (centres unmarked) [Example 74, N-(4-Aminocyclohexyl)-3-(4-carbamimidoyl-3-methylphenoxy)-5-(4-carbamimidoylphenoxy)benzamide]: in the assay on DU145 cells [3], the viability at 10 µM was 95%. In addition, the inhibition at 5 µM against thrombin worked out at 33%; against uPA, 11%; against Factor Xa, 86%; against plasmin, 10%. In addition, the 50% inhibitory concentration (IC50) in assay [1] (setting [6]) turned out to be 13.2 nM; in assay [1] (setting [7]) it was 13 nM. In addition, the inhibition at 10 µM with DU145 cells [4] was 18%; in the assay with DU145 cells [5], 45%. In addition, the “Trypsin Inhibition (%)” value with trypsin was determined as 28%.

As to `N=C(N)c1ccc(Oc2cc(Oc3ccc(C(=N)N)cc3)cc(C(=O)OC3CCC(N)CC3)c2)cc1` (centres unmarked) [Example 103, 3,5-Bis-(4-carbamimidoyl-phenoxy)-benzoic acid 4-amino-cyclohexyl Ester], the inhibition at 5 µM is 44% against thrombin, 25% at uPA, 92% against Factor Xa and 58% against plasmin. Moreover, the IC50 in [1] (setting [6]) turned out to be 2 nM. Moreover, the “Trypsin Inhibition (%)” value in the assay on trypsin came out at 92%.

As to `N=C(N)c1ccc(Oc2cc(NC(=O)[C@H]3CC[C@H](N)CC3)cc(Oc3ccc(C(=N)N)cc3)c2)cc1` [Example 108, Trans-4-amino-cyclohexanecarboxylic Acid[3,5-bis-(4-carbamimidoyl-phenoxy)-phenyl]-amide], at thrombin, the “Thrombin Inhibition (%)” value is 49%. The IC50 in assay [1] (setting [6]) was determined as 4 nM. Further, on uPA, the “uPA Inhibition (%)” value turned out to be 23%. Besides, the “Trypsin Inhibition (%)” value with trypsin is given as 76%. Besides, the “Factor Xa Inhibition (%)” value at Factor Xa came out at 81%. Also, at plasmin, the “Plasmin Inhibition (%)” value is 61%.

`N=C(N)c1ccc(Oc2cc(NC(=O)C3CCN(CCO)CC3)cc(Oc3ccc(C(=N)N)cc3)c2)cc1` [Example 111, 1-(2-Hydroxy-ethyl)-piperidine-4-carboxylic acid[3,5-bis-(4-carbamimidoyl-phenoxy)-phenyl]-amide]: the “Thrombin Inhibition (%)” value on thrombin turned out to be 44%. The IC50 in [1] (setting [6]) was 29 nM. Moreover, at uPA, the “uPA Inhibition (%)” value amounted to 17%. Moreover, in the assay on trypsin, the “Trypsin Inhibition (%)” value stood at 63%. The “Factor Xa Inhibition (%)” value on Factor Xa is 74%. The “Plasmin Inhibition (%)” value on plasmin came out at 46%.

In the case of `N=C(N)c1cccc(COc2cc(NC(=O)C3CCC(N)CC3)cc(OCc3cccc(C(=N)N)c3)c2)c1` (centres unmarked) [Example 119, 4-Amino-cyclohexanecarboxylic acid[3,5-bis-(3-carbamimidoyl-benzyloxy)-phenyl]-amide], on thrombin, the “Thrombin Inhibition (%)” value was 47%. In addition, the IC50 in assay [1] (setting [6]) came to 7 nM. At uPA, the “uPA Inhibition (%)” value is listed as 14%. Besides, in the assay with trypsin, the “Trypsin Inhibition (%)” value is on record as 77%. Further, the “Factor Xa Inhibition (%)” value on Factor Xa came to 97%. Besides, the “Plasmin Inhibition (%)” value at plasmin was 30%.
